Reference: paper PMC10744248, “Unsymmetrical Pd(II) Pincer Complexes with Benzothiazole and Thiocarbamate Flanking Units: Expedient Solvent-Free Synthesis and Anticancer Potential” (International Journal of Molecular Sciences, 2023)
One block for each compound: values may come before it.

What was measured:
[1] = test system: doxorubicin-resistant mammary epithelial HBL100/Dox cells; test: MTT cytotoxicity assay, HBL100/Dox; type: cell-based, human; conditions: HBL100/dox (non-cancerous, doxorubicin-resistant)
Protocol: (§1) To estimate the anticancer potential of palladacycles 2a,b, their ability to inhibit cell growth in different solid and blood cancer cell lines was determined using the conventional MTT assay. […] This underscores the importance of a more labile pincer-type coordination that can be achieved not only by the introduction of two different donor centers (like hard nitrogen and soft sulfur atoms) but also via elongating one of the side arms (like in the considered thiophosphoryloxy and thiocarbamate derivatives). In turn, the stability of a pincer-type framework of complex 2b, used as a representative example, in neat DMSO, DMSO–water, and DMSO–PBS mixtures for 2 days was confirmed by the results of UV-vis spectroscopic studies (for the corresponding spectra, see Figures S33–S35 in the SI).
(§2) However, in certain cases, the selectivity indices approached and even exceeded 10.0. Of particular note is the same level of cytotoxicity of both benzothiazole–thiocarbamate complexes against parental cell lines and doxorubicin-resistant clones of non-cancerous mammary epithelial cells (HBL100 and HBL100/Dox) and, more importantly, chronic myelogenous leukemia cells K562 and K562/iS9. The additional investigations by flow cytometry performed on K562 and K562/iS9 cancer cells treated with complex 2a using the Annexin V-FITC/PI double staining assay confirmed its ability to […] (Figure 4), increasing the populations of early (lower right quadrants) and late (upper right quadrants) apoptotic cells in both parental and resistant lines. These findings argue for the possibility of creating new promising anticancer agents based on the related cyclopalladated derivatives that could potentially evade drug resistance of cancer cells.
(§3) The cytotoxicities of ligand 1b and Pd(II) pincer complexes 2a,b, V, and VI (X = O) were studied on human colorectal carcinoma (HCT116), breast cancer (MCF7), prostate adenocarcinoma (PC3), chronic myelogenous leukemia (K562 and K562/iS9), multiple plasmacytoma (AMO1), and acute lymphoblastic leukemia (H9) cell lines, as well as human embryonic kidney (HEK293) and mammary epithelial (HBL100 and HBL100/Dox) cells used as representatives of non-cancerous cell lines. All the cell lines were obtained from American Type Culture Collection (ATCC). The tested compounds were initially dissolved in DMSO. Cisplatin (in the initial form of an infusion concentrate in natural saline solution) from a commercial source was used as a positive control. The detailed procedure is described in Ref. [52].

[2] = test system: doxorubicin-resistant chronic myelogenous leukemia K562/iS9 cells; test: MTT cytotoxicity assay, K562/iS9; type: cell-based, human
Protocol: as §1, §2, §3

[3] = test system: breast cancer (MCF7) cells; test: MTT cytotoxicity assay, MCF7; type: cell-based, human; conditions: for IC50: MCF7, MTT assay
Protocol: (§4) To estimate the anticancer potential of palladacycles 2a,b, their ability to inhibit cell growth in different solid and blood cancer cell lines was determined using the conventional MTT assay.
as §3, with “Cisplatin (in the initial form of an infusion concentrate in natural saline solution) from a commercial source was used as a positive control.” left out

[4] = test system: human colorectal carcinoma (HCT116) cells; test: MTT cytotoxicity assay, HCT116; type: cell-based; conditions: for IC50: HCT116, MTT assay
Protocol: as §4
as §3, with “Cisplatin (in the initial form of an infusion concentrate in natural saline solution) from a commercial source was used as a positive control.” left out

[5] = test system: prostate adenocarcinoma (PC3) cells; test: MTT cytotoxicity assay, PC3; type: cell-based, human; conditions: for IC50: PC3, MTT assay
Protocol: as §4
as §3, with “Cisplatin (in the initial form of an infusion concentrate in natural saline solution) from a commercial source was used as a positive control.” left out

[6] = test system: human embryonic kidney (HEK293) cells; test: MTT cytotoxicity assay, HEK293; type: cell-based; conditions: HEK293 (non-cancerous)
Protocol: as §4
as §3, with “Cisplatin (in the initial form of an infusion concentrate in natural saline solution) from a commercial source was used as a positive control.” left out

[7] = test system: acute lymphoblastic leukemia (H9) cells; test: MTT cytotoxicity assay, H9; type: cell-based, human
Protocol: as §4
as §3, with “Cisplatin (in the initial form of an infusion concentrate in natural saline solution) from a commercial source was used as a positive control.” left out

[8] = test system: multiple plasmacytoma (AMO1) cells; test: MTT cytotoxicity assay, AMO1; type: cell-based, human
Protocol: as §4
as §3, with “Cisplatin (in the initial form of an infusion concentrate in natural saline solution) from a commercial source was used as a positive control.” left out

[9] = test system: chronic myelogenous leukemia K562 cells; test: MTT cytotoxicity assay, K562; type: cell-based, human
Protocol: as §4
as §3, with “Cisplatin (in the initial form of an infusion concentrate in natural saline solution) from a commercial source was used as a positive control.” left out

[10] = test system: mammary epithelial HBL100 cells; test: MTT cytotoxicity assay, HBL100; type: cell-based, human; conditions: HBL100 (non-cancerous)
Protocol: as §4
as §3, with “Cisplatin (in the initial form of an infusion concentrate in natural saline solution) from a commercial source was used as a positive control.” left out

[11] = test system: human cell lines; test: MTT cytotoxicity assay, cell line panel (line not specified); type: cell-based; conditions: at a concentration as high as 60 μM
Protocol: as §1
However, in certain cases, the selectivity indices approached and even exceeded 10.0. Of particular note is the same level of cytotoxicity of both benzothiazole–thiocarbamate complexes against parental cell lines and doxorubicin-resistant clones of non-cancerous mammary epithelial cells (HBL100 and HBL100/Dox) and, more importantly, chronic myelogenous leukemia cells K562 and K562/iS9. […]

[12] = Stability by UV-vis spectroscopy; type: physicochemical
Protocol: as §1
The UV–vis spectra were registered on a Cary50 spectrometer in quartz cells with 10 mm path length (Figures S33–S35 in the SI).
Figure S33. […]
DMSO–PBS (1:1) registered immediately after dissolution (a) , in one ( b) or two (c) days Note: a reduction in the absorbance in the case of the DMSO–PBS (1:1) solution in time is connected […]
To confirm its identity, the resulting precipitate was collected by filtration, dried in air, dissolved in neat DMSO, and immediately analyzed by UV-Vis spectroscopy (see Fig. S35). […]

Structure (SMILES): N.N.[Cl][Pt][Cl] [Cisplatin, reference compound]
IC50 [1]: 23.6 ± 3.6 µM | IC50 [2]: 16 ± 2 µM

Structure (SMILES): [Cl][Pd-2]12[S+]=P(c3ccccc3)(c3ccccc3)c3cccc([c]31)-c1sc3ccccc3[n+]12 (centres unmarked) [V, reference compound]
percentage of living cells ([3]; MCF7, at a concentration of 80 μM): over 60% | percentage of living cells ([4]; HCT116, at a concentration of 80 μM): over 60% | percentage of living cells ([5]; PC3, at a concentration of 80 μM): over 60%

Structure (SMILES): [Cl][Pd-2]12[S+]=P(c3ccccc3)(c3ccccc3)Oc3cccc([c]31)-c1sc3ccccc3[n+]12 (centres unmarked) [VI (X = O), reference compound]
IC50 [6]: 13 ± 0.5 µM | IC50 [3]: 17 ± 0.5 µM | IC50 [7]: 1.7 ± 0.3 µM | IC50 [8]: 3.4 ± 0.5 µM | IC50 [4]: 10.3 ± 0.8 µM | IC50 [5]: 6.6 ± 0.6 µM | IC50 [9]: 1.9 ± 0.3 µM | IC50 [1]: 28.6 ± 3.8 µM | IC50 [2]: 2.5 ± 0.4 µM | IC50 [10]: 9.4 ± 0.9 µM

Structure (SMILES): CCN(CC)C(=S)Oc1cccc(-c2nc3ccccc3s2)c1 [1b, O-[3-(Benzo[d]thiazol-2-yl)phenyl] Diethylthiocarbamate]
cytotoxicity [11]: nontoxic

Structure (SMILES): CN(C)C1=[S+][Pd-2]2([Cl])[c]3c(cccc3-c3sc4ccccc4[n+]32)O1 (centres unmarked) [2a]
IC50 [6]: 2.5 ± 0.2 µM | IC50 [3]: 3.3 ± 0.4 µM | IC50 [7]: 1.3 ± 0.1 µM | IC50 [8]: 0.3 ± 0.1 µM | IC50 [4]: 1.3 ± 0.2 µM | IC50 [5]: 1.1 ± 0.3 µM | IC50 [9]: 0.9 ± 0.2 µM | IC50 [1]: 4.4 ± 0.8 µM | IC50 [2]: 0.9 ± 0.1 µM | IC50 [10]: 3.2 ± 0.5 µM

behaviour in DMSO–PBS (1:1) solution in time (reduction in absorbance) ([12]; DMSO–PBS (1:1), up to 2 days): gradual precipitation | stability of the pincer-type framework ([12]; neat DMSO, DMSO–water and DMSO–PBS mixtures (1:1), 2 days): confirmed
Structure (SMILES): CCN(CC)C1=[S+][Pd-2]2([Cl])[c]3c(cccc3-c3sc4ccccc4[n+]32)O1 (centres unmarked) [2b]
IC50 [6]: 9.5 ± 0.7 µM | IC50 [3]: 13.5 ± 2.1 µM | IC50 [7]: 2.1 ± 0.9 µM | IC50 [8]: 4.4 ± 0.8 µM | IC50 [4]: 12.7 ± 1.5 µM | IC50 [5]: 8.5 ± 2.5 µM | IC50 [9]: 2.9 ± 0.4 µM | IC50 [1]: 16.3 ± 3.8 µM | IC50 [2]: 2.6 ± 0.8 µM | IC50 [10]: 10.2 ± 3.3 µM
